Data from ChEMBL document CHEMBL1201862, “PubChem BioAssay data set” (2004).
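Briefly, cells in 96-well plates were exposed to five compound concentrations for 48 h, and endpoints were estimated by linear interpolation. Abbreviation: GI50, concentration required for 50% inhibition of growth.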 Calls of active or inactive are those of the source. No stated cut-off is given here; in the data, active = GI50 up to about 1.1 µM and inactive = higher.

How the values were obtained:
Assay in all cases: inhibition of tumour cell growth, NCI panel, 48 h
[1] = system: NCI-H522
[2] = system: SW-620
[3] = system: MDA-MB-231
[4] = system: SNB-19
[5] = system: NCI/ADR-RES
[6] = system: COLO 205
[7] = system: MDA-MB-435
[8] = system: EKVX
[9] = system: HCT-15
[10] = system: OVCAR-3
[11] = system: OVCAR-8
[12] = system: HT-29
[13] = system: SK-MEL-28
[14] = system: UACC-257
[15] = system: Malme-3M
[16] = system: Hs-578T
[17] = system: HCC 2998

| SMILES | GI50 [1] | GI50 [2] | GI50 [3] | GI50 [4] | GI50 [5] | GI50 [6] | GI50 [7] | GI50 [8] | GI50 [9] | GI50 [10] | GI50 [11] | GI50 [12] | GI50 [13] | GI50 [14] | GI50 [15] | GI50 [16] | GI50 [17] |
| --- | --- | --- | --- | --- | --- | --- | --- | --- | --- | --- | --- | --- | --- | --- | --- | --- | --- |
| CN1CN(c2ccccc2)C2(CCN(CCCCCCF)CC2)C1=O | > 100 µM (inactive) | 53.8 µM (inactive) | 81.1 µM (inactive) | 71.1 µM (inactive) | 16.4 µM (inactive) | 21.1 µM (inactive) | > 100 µM (inactive) | 48.6 µM (inactive) | 54.5 µM | > 100 µM (inactive) | > 100 µM (inactive) | 30.9 µM (inactive) | > 100 µM (inactive) | 35.2 µM (inactive) | > 100 µM (inactive) | – | – |
| CN(CC(=O)O)c1ncc2c(n1)-c1ccccc1SC2 | > 100 µM (inactive) | > 100 µM (inactive) | > 100 µM (inactive) | > 100 µM (inactive) | > 100 µM (inactive) | > 100 µM (inactive) | > 100 µM (inactive) | > 100 µM (inactive) | > 100 µM | – | > 100 µM (inactive) | > 100 µM (inactive) | > 100 µM (inactive) | > 100 µM (inactive) | 50.1 µM (inactive) | > 100 µM (inactive) | – |
| C=C1C(O)CC[C@]2(C)C1C1OC(C)(C)O[C@]13CC(=O)C(C)=C([C@H]1OC(C)(C)OC12)C3(C)C (stereo partly specified) | – | > 100 µM (inactive) | > 100 µM (inactive) | > 100 µM (inactive) | > 100 µM (inactive) | > 100 µM (inactive) | > 100 µM (inactive) | > 100 µM (inactive) | > 100 µM | > 100 µM (inactive) | > 100 µM (inactive) | > 100 µM (inactive) | > 100 µM (inactive) | > 100 µM (inactive) | > 100 µM (inactive) | – | > 100 µM (inactive) |
| CCOC(=O)NNC(=O)NCCCCNC(=O)NNC(=O)OCC | > 100 µM (inactive) | > 100 µM (inactive) | > 100 µM (inactive) | > 100 µM (inactive) | > 100 µM (inactive) | > 100 µM (inactive) | > 100 µM (inactive) | > 100 µM (inactive) | > 100 µM | > 100 µM (inactive) | > 100 µM (inactive) | > 100 µM (inactive) | > 100 µM (inactive) | > 100 µM (inactive) | – | > 100 µM (inactive) | – |
| CCCOP(=O)(OCCC)OC(C(F)(F)F)C(F)(F)F | > 100 µM (inactive) | – | > 100 µM (inactive) | > 100 µM (inactive) | – | – | > 100 µM (inactive) | > 100 µM (inactive) | > 100 µM | > 100 µM (inactive) | – | > 100 µM (inactive) | > 100 µM (inactive) | > 100 µM (inactive) | > 100 µM (inactive) | > 100 µM (inactive) | > 100 µM (inactive) |
| O=S(=O)(O)CCSSCCS(=O)(=O)O | > 1000 µM (inactive) | > 1000 µM (inactive) | > 1000 µM (inactive) | > 1000 µM (inactive) | > 1000 µM (inactive) | > 1000 µM (inactive) | > 1000 µM (inactive) | > 1000 µM (inactive) | > 1000 µM | > 1000 µM (inactive) | > 1000 µM (inactive) | > 1000 µM (inactive) | > 1000 µM (inactive) | > 1000 µM (inactive) | > 1000 µM (inactive) | – | > 1000 µM (inactive) |
| CC(C)(C)[Si](C)(C)OCC1OC(n2cnc3c(N)ncnc32)C2OC(=S)OC12 (stereo unspecified) | – | 32.7 µM (inactive) | 27.7 µM (inactive) | 52.1 µM (inactive) | 23.5 µM (inactive) | 35.6 µM (inactive) | 19.9 µM (inactive) | – | 26.2 µM | 29.2 µM (inactive) | 35.1 µM (inactive) | 29.4 µM (inactive) | 38.4 µM (inactive) | 43.3 µM (inactive) | 23.6 µM (inactive) | 41.5 µM (inactive) | – |
| C1CSCC2(COC2)CS1 | > 100 µM (inactive) | > 100 µM (inactive) | – | > 100 µM (inactive) | > 100 µM (inactive) | > 100 µM (inactive) | > 100 µM (inactive) | – | – | – | > 100 µM (inactive) | > 100 µM (inactive) | > 100 µM (inactive) | > 100 µM (inactive) | – | > 100 µM (inactive) | > 100 µM (inactive) |
| Oc1cc(-c2ccc(F)cc2)nc2ncccc12 | 35.4 µM (inactive) | 38.2 µM (inactive) | > 100 µM (inactive) | 80.2 µM (inactive) | 32.9 µM (inactive) | 20.2 µM (inactive) | – | 39.4 µM (inactive) | 34.2 µM | – | 77.8 µM (inactive) | 42.7 µM (inactive) | > 100 µM (inactive) | 30.5 µM (inactive) | 65.6 µM (inactive) | 65.2 µM (inactive) | > 100 µM (inactive) |
| Cc1cc(C)c2c(n1)S(=O)(=O)N(CCCN1CCN(c3cccc(C(F)(F)F)c3)CC1)C(C(=O)c1ccc(Cl)cc1)=C2O | 2.7 µM (inactive) | 3.69 µM (inactive) | 4.4 µM (inactive) | 2.2 µM (inactive) | 2.12 µM (inactive) | 1.84 µM (inactive) | 3.18 µM (inactive) | 3.03 µM (inactive) | 1.85 µM | 3.57 µM (inactive) | 3.83 µM (inactive) | 4.03 µM (inactive) | 5.21 µM (inactive) | 2.31 µM (inactive) | 3.27 µM (inactive) | 5.55 µM (inactive) | – |
